Results on three compounds are retold here after patent US4579859A, “Vasodilating trinitratoalkyl esters of 2-cyano-1,4-dihydropyridines” (Fujisawa Pharmaceutical Co., Ltd., priority 1983, dated 1986).

Structures are written as SMILES. In brackets after ≈: the same amount, converted by molar mass. Like-named read-outs stand apart in the source and are kept apart here. A value given as a limit tells only on which side of the number the result lay.

This assay has as its system isolated coronary artery. The assay can be described thus: Effect on isolated coronary artery (relaxation of KF-contracted spiral strips; papaverine 10^-4 M = 100%). Also noted: species or system dogs. Conditions: Canis lupus familiaris, read-out: ED50 values. Here is the method: The large coronary arteries, 2.0 mm in outside diameter were removed from pentobarbital-anesthetized dogs. Spiral strips approximately 15 mm in length were cut from the large arteries, and suspended in an organ bath containing calcium-free-Tyrode's solution with EGTA 0.2 mM at 37° C., aerated with a gas mixture of 95% oxygen and 5% carbon dioxide. The tonus of the strips was recorded on a polygraph with a force-displacement transducer. After the initial resting tension was adjusted to 1.0 g for the large artery, potassium fluoride 10 mM was added to the organ bath to increase the tonus of the large arterial strips to 1.4-1.6 g.
The cumulative concentrations of the test compound were then added, and finally paraverine 10^-4 M was given to determine maximum relaxation. ED50 values were calculated by interpolation from the mean cumulative dose-activity curves (effect of papaverine 10^-4 M=100%).

Turning to `COC(=O)C1=C(C)NC(C)=C(C(=O)OC)C1c1ccccc1[N+](=O)[O-]` [Nifedipine, Dimethyl esters of 2,6-dimethyl-4-(2-nitrophenyl)-3,5-dicarboxylic acid, reference compound], the EC50 (isolated dog large coronary artery strips, calcium-free Tyrode's solution with EGTA 0.2 mM, 37° C., tonus by potassium fluoride 10 mM, cumulative concentrations, papaverine 10^-4 M = 100%) is more than 1 µg/mL.

For the compound `COC(=O)C1=C(C#N)NC(C)=C(C(=O)OCC(CO[N+](=O)[O-])(CO[N+](=O)[O-])CO[N+](=O)[O-])C1c1cccc([N+](=O)[O-])c1` (stereo not drawn) [Compound B, 3-Nitrooxy-2,2-bis(nitrooxymethyl)propyl ester of 6-cyano-5-methoxycarbonyl-2-methyl-4-(3-nitrophenyl)-1,4-dihydropyridine-3-carboxylic acid], the EC50 was determined as 0.17 µg/mL (≈ 0.285 µM).

For the compound `CCOC(=O)C1=C(C)NC(C)=C(C(=O)OCC(CO[N+](=O)[O-])(CO[N+](=O)[O-])CO[N+](=O)[O-])C1c1cccc(Cl)c1Cl` (stereo not drawn) [Compound A, 3-Nitrooxy-2,2-bis(nitrooxymethyl)propyl ester of 4-(2,3-dichlorophenyl)-5-ethoxycarbonyl-2,6-dimethyl-1,4-dihydropyridine-3-carboxylic acid], the EC50 was 0.97 µg/mL (≈ 1.56 µM).
